In ChEMBL document CHEMBL5241120, “Insights into the medicinal chemistry of heterocycles integrated with a pyrazolo[1,5-a]pyrimidine scaffold” (RSC Med Chem, 2022):
Converted amounts (≈) assume the structure as drawn. Blank lines part the entries; values can stand above or below the compound they belong to.

Experiments:
[1] = system: HepG2; test: Cytotoxicity against human HepG2 cells by MTT assay; type: functional, cell-based
[2] = system: HCT-116; test: Cytotoxicity against human HCT-116 cells by MTT assay; type: functional, cell-based
[3] = system: MCF7; test: Cytotoxicity against human MCF7 cells by MTT assay; type: functional, cell-based
[4] = system: SiHa; test: Cytotoxicity against human SiHa cells by MTT assay; type: functional, cell-based
[5] = system: HeLa; test: Cytotoxicity against human HeLa cells by MTT assay; type: functional, cell-based
[6] = system: Pseudomonas aeruginosa; test: Antibacterial activity against Pseudomonas aeruginosa assessed as zone of inhibition; type: functional
[7] = system: Escherichia coli; test: Antibacterial activity against Escherichia coli assessed as zone of inhibition; type: functional
[8] = system: Bacillus subtilis; test: Antibacterial activity against Bacillus subtilis assessed as zone of inhibition; type: functional
[9] = system: Staphylococcus aureus; test: Antibacterial activity against Staphylococcus aureus assessed as zone of inhibition; type: functional
[10] = system: Bacillus subtilis; test: Antibacterial activity against Bacillus subtilis; type: functional
[11] = system: Escherichia coli; test: Antibacterial activity against Escherichia coli; type: functional

Compound: CC1=CC(c2ccccc2)n2nc(-c3ccc(C)cc3)cc2N1 (stereo unspecified)
- IC50 [1]: 10.3 µg/mL
- IC50 [2]: 22.5 µg/mL (≈ 74.7 µM)
- IC50 [3]: 23.8 µg/mL (≈ 79 µM)

Compound: COc1cc(CNc2ccccc2C(=O)N2CCN(C(=O)c3cc(-c4cc(OC)c(OC)c(OC)c4)n4nc(-c5ccccc5)cc4n3)CC2)cc(OC)c1OC
- IC50 [4]: 1910 nM
- IC50 [5]: 1510 nM

Compound: CC1=CC(c2ccccc2)n2nc(-c3ccccc3)cc2N1 (stereo unspecified)
- IC50 [1]: 0.64 µg/mL
- IC50 [2]: 1.89 µg/mL (≈ 6.58 µM)
- IC50 [3]: 2.79 µg/mL (≈ 9.71 µM)

Compound: CC1=CC(c2ccccc2)n2nc(C)cc2N1 (stereo unspecified)
- IC50 [1]: 24.8 µg/mL
- IC50 [2]: 22.6 µg/mL (≈ 100 µM)
- IC50 [3]: 23.5 µg/mL (≈ 104 µM)

Compound: COc1cccc2c1C(=O)c1c(O)c3c(c(O)c1C2=O)C[C@@](O)(C(=O)CO)C[C@@H]3O[C@H]1C[C@H](N)[C@H](O)[C@H](C)O1 [DOXORUBICIN]
- IC50 [1]: 80900 nM
- IC50 [2]: 1.6 µg/mL (≈ 2.94 µM)

Compound: COc1cc(-c2cc(C(=O)N3CCN(C(=O)c4ccccc4NCc4cccs4)CC3)nc3cc(-c4ccccc4)nn23)cc(OC)c1OC
- IC50 [4]: 1560 nM
- IC50 [5]: 1460 nM

Compound: NC(=O)c1c(Nc2ccc(Br)cc2)nn2c(-c3ccc(Br)cc3)ccnc12
- inhibition zone (IZ) [6]: 9 mm
- inhibition zone (IZ) [7]: 9 mm
- inhibition zone (IZ) [8]: 9 mm
- inhibition zone (IZ) [9]: 9 mm

Compound: O=C(c1cc(-c2ccc([N+](=O)[O-])cc2)n2nc(-c3ccccc3)cc2n1)N1CCN(C(=O)c2ccccc2NCc2cccc3c2OCO3)CC1
- IC50 [4]: 1990 nM
- IC50 [5]: 1990 nM

- MIC [10]: 5 µg/mL (≈ 8.6 µM)
- MIC [11]: 5 µg/mL (≈ 8.6 µM)
Compound: CN[C@@H]1[C@H](O[C@H]2[C@H](O[C@H]3[C@H](O)[C@@H](O)[C@H](N=C(N)N)[C@@H](O)[C@@H]3N=C(N)N)O[C@@H](C)[C@]2(O)C=O)O[C@@H](CO)[C@H](O)[C@H]1O [STREPTOMYCIN]
- inhibition zone (IZ) [7]: 16.4 mm
- inhibition zone (IZ) [8]: 16.2 mm

Compound: COc1cc(-c2cc(C(=O)N3CCN(C(=O)c4ccccc4NCc4ccco4)CC3)nc3cc(-c4ccccc4)nn23)cc(OC)c1OC
- IC50 [4]: 1610 nM
- IC50 [5]: 1540 nM

Compound: NC(=O)c1c(Nc2ccccc2)nn2c(-c3ccc(O)cc3)ccnc12
- inhibition zone (IZ) [6]: 9 mm
- inhibition zone (IZ) [7]: 9 mm
- inhibition zone (IZ) [8]: 9 mm
- inhibition zone (IZ) [9]: 9 mm

Compound: O=C(c1cc(-c2ccccc2)n2nc(-c3ccccc3)cc2n1)N1CCN(C(=O)c2ccccc2NCc2ccco2)CC1
- IC50 [4]: 1930 nM

Compound: N#Cc1c(-c2ccccc2)nc2c(/N=N/c3cccc(C(F)(F)F)c3)c(N)nn2c1O
- IC50 [1]: 2.41 µg/mL
- IC50 [2]: 2.39 µg/mL (≈ 5.65 µM)
- IC50 [3]: 2.09 µg/mL (≈ 4.94 µM)

Compound: CC(=O)O[C@H]1C(=O)[C@@]2(C)[C@H]([C@H](OC(=O)c3ccccc3)[C@]3(O)C[C@H](OC(=O)[C@H](O)[C@@H](NC(=O)c4ccccc4)c4ccccc4)C(C)=C1C3(C)C)[C@]1(OC(C)=O)CO[C@@H]1C[C@@H]2O [PACLITAXEL]
- IC50 [1]: 4.3 µg/mL
- IC50 [2]: 2.9 µg/mL (≈ 3.4 µM)
- IC50 [3]: 4.7 µg/mL (≈ 5.5 µM)

Compound: COc1ccc(-c2cc(-c3nn4cc(-c5ccncc5)cnc4c3S(=O)(=O)c3ccc(OC)cc3)on2)cc1
- IC50 [4]: 1770 nM

Compound: Cc1ccc(-c2nc3c(/N=N/c4cccc(C(F)(F)F)c4)c(N)nn3c(O)c2C#N)cc1
- IC50 [1]: 8.47 µg/mL
- IC50 [2]: 12 µg/mL (≈ 27.4 µM)
- IC50 [3]: 11.2 µg/mL (≈ 25.6 µM)

Compound: Nc1nc2c(/N=N/c3ccc(C(F)(F)F)cc3)c(N)nn2c(N)c1/N=N/c1ccc(S(=O)(=O)Nc2ncccn2)cc1
- IC50 [1]: 3.4 µg/mL
- IC50 [2]: 2.4 µg/mL (≈ 4.02 µM)
- IC50 [3]: 1.4 µg/mL (≈ 2.34 µM)

Compound: Cc1ccc(-c2nc3c(/N=N/c4cccc(C(F)(F)F)c4)c(N)nn3c(N)c2C#N)cc1
- IC50 [1]: 0.64 µg/mL
- IC50 [2]: 1.89 µg/mL (≈ 4.33 µM)
- IC50 [3]: 2.79 µg/mL (≈ 6.39 µM)

- MIC [10]: 10 µg/mL (≈ 37 µM)
- MIC [11]: 10 µg/mL (≈ 37 µM)
Compound: Cc1cc(NN2C(=O)CCC2=O)n2ncc(C#N)c2n1

Compound: COc1ccc(-c2cc(-c3nn4cc(-c5ccncc5)cnc4c3S(=O)(=O)c3cc(OC)cc(OC)c3)on2)cc1
- IC50 [4]: 990 nM

Compound: CC[C@H](CO)Nc1nc(NCc2ccccc2)c2ncn(C(C)C)c2n1 [SELICICLIB]
- IC50 [4]: 2690 nM
- IC50 [5]: 2200 nM

Compound: COc1ccc(-c2cc(C(=O)N3CCN(C(=O)c4ccccc4NCc4cccs4)CC3)nc3cc(-c4ccccc4)nn23)cc1OC
- IC50 [4]: 1810 nM
- IC50 [5]: 1990 nM

Compound: COc1ccc(-c2cc(-c3nn4cc(-c5ccncc5)cnc4c3S(=O)(=O)c3ccc([N+](=O)[O-])cc3)on2)cc1
- IC50 [4]: 2100 nM
